Source: US10100079B2, “Progesterone-cationic lipid hybrid as anticancer agent and the process of synthesis thereof” (Council of Scientific & Industrial Research, priority 2016, dated 2018)
Like-named read-outs stand apart in the source and are kept apart here.

Experiments:
MCF7 = assay: MTT cytotoxicity assay, MCF7; format: cell-based; settings: Homo sapiens, read-out: IC50 MCF7
Method: (§1) All cells were grown into mycoplasma free condition. […] All cells were grown up to 75-85% confluency after which cells were trypsinized, counted and seeded, in 96-well plates for cell viability studies, 6-well plates for apoptosis studies, 60 mm dish for cell cycle studies and in 25 cm^2 or 75 cm^2 tissue culture flasks for Western blot studies. The primary stock of the cationic progesterone molecules were made in cell culture grade DMSO and from that secondary stock was prepared by serial dilution with cell culture grade DMSO. The final working concentrations were prepared by diluting the secondary stock in cell culture media keeping the DMSO concentration in working solution below 0.2% with respect to cell culture medium. […] For this assay, 12-18 h before treatment cells were plated in 96-well plate at 5000 cells/well density. […] After completion of the treatment, 10 μL of MTT solution (5 mg/mL) was added in each well and incubated for 4 h. Then the media was removed carefully, and the reduced MTT was dissolved in 1:1 (v/v) DMSO/Methanol and absorbance was measured using multimode reader (Synergy H1, BioTek). Results were represented as percentage of viability={[A550(treated cells)−background]/[A550(untreated cells)−background]}×100. The result was summarized and provided as IC50 table in Table 1.

T47D (PgR-positive) = assay: Cell cycle assay by flow cytometry (PI), T47D; format: cell-based, human; settings: 10 μM, 24 h
Method: To measure the cellular DNA content, cell cycle assay was carried out. In this assay, first cells were synchronized at early S-phase by double thymidine blocking. When cell confluency was reached around 25-30% in 60 mm dish, cells were treated with 2 mM thymidine, diluted in 10% FBS containing DMEM, for 18 h to block cells at early S-phase. To release the blocking, media was discarded and washed with 1×PBS. Then the cells were incubated with fresh cell culture media containing 10% FBS for 9 h. After releasing, second blocking was done with 2 mM thymidine containing media for 17 h. After second blocking cells were released by discarding the thymidine supplemented media and kept in fresh media. All the respective treatments for cell cycle study were done after 2 h of second release.
S-phase synchronized cells were either kept untreated or treated with compound 1 (10 μM) and 6c (10 μM) for 24 h. Cells from different treatment groups were harvested, washed with 1×PBS, and fixed with 70% ethanol and kept at −20° C. for overnight. Then the ethanol was removed and washed with 1×PBS. […] After incubation cells were collected by centrifugation, washed with 1×PBS, re-suspended in 500 μL 1×PBS, and data was recorded using flow cytometer (FACS Canto II, Becton-Dickinson, San Jose, Calif., USA) and data were analyzed with FACS Diva software. […]

COS-1 = assay: MTT cytotoxicity assay, COS-1; format: cell-based; settings: Chlorocebus aethiops, read-out: IC50 COS-1
Method: as §1

B16F10 = assay: MTT cytotoxicity assay, B16F10; format: cell-based, murine
Method: as §1

CHO = assay: MTT cytotoxicity assay, CHO; format: cell-based, Chinese hamster; settings: Cricetulus griseus, read-out: IC50 CHO
Method: as §1

MDA-MB-231 = assay: MTT cytotoxicity assay, MDA-MB-231; format: cell-based, human
Method: as §1

NIH-3T3 = assay: MTT cytotoxicity assay, NIH-3T3; format: cell-based, murine; settings: Mus musculus, read-out: IC50 NIH-3T3
Method: as §1

OVCAR-3 = assay: MTT cytotoxicity assay, OVCAR-3; format: cell-based; settings: Homo sapiens, read-out: IC50 OVCAR-3
Method: as §1

HUVEC = assay: Viability study in HUVEC cell (FIG. 7A); format: cell-based, Human; settings: 48 h
Method: 2 μM Doxorubicin (DOX) was taken as positive control. + indicates p<0.01.
T47D, MCF-7, MDA-MB-231 (human breast carcinoma), OVCAR-3 (Human ovary carcinoma), B16F10 (murine melanoma), HUVEC (Human umbilical vein endothelium) cells were purchased from the American Type Cell Culture (ATCC, USA) and CHO (Chinese hamster ovary), NIH-3T3 (murine embryo fibroblast) and COS-1 (Kidney fibroblast) cells were purchased from National Center for Cell Sciences (Pune, India). All cells were grown into mycoplasma free condition. […] All cells were grown up to 75-85% confluency after which cells were trypsinized, counted and seeded, in 96-well plates for cell viability studies, 6-well plates for apoptosis studies, 60 mm dish for cell cycle studies and in 25 cm^2 or 75 cm^2 tissue culture flasks for Western blot studies.
Cytotoxicity assay of the different compounds were carried out by using 3-(4,5-dimethylthiazol-2-yl)-2,5-diphenyltetrazolium bromide (MTT). […] Then the media was removed carefully, and the reduced MTT was dissolved in 1:1 (v/v) DMSO/Methanol and absorbance was measured using multimode reader (Synergy H1, BioTek). […]

[1] = tested on: non-cancer cells CHO, COS-1 and NIH-3T3; assay: MTT viability, tested non-cancer cells (combination treatment study, FIG. 1B); format: cell-based; settings: 48 h; for toxicity in non-cancer cells: 10 μM (1+10C: 10 μM+10 μM)
Method: FIG. 1B: The viability studies of non-cancer cells CHO, COS-1 and NIIH-3T3 after 48 h of continuous treatment with compound 1 (10 μM), 10C [cationic lipid control molecule not containing progesterone moiety]
Cytotoxicity assay of the different compounds were carried out by using 3-(4,5-dimethylthiazol-2-yl)-2,5-diphenyltetrazolium bromide (MTT). For this assay, 12-18 h before treatment cells were plated in 96-well plate at 5000 cells/well density. After incubation cells were treated continuously for 48 h with respective compounds at different concentration (2.5 μM-40 μM). After completion of the treatment, 10 μL of MTT solution (5 mg/mL) was added in each well and incubated for 4 h. Then the media was removed carefully, and the reduced MTT was dissolved in 1:1 (v/v) DMSO/Methanol and absorbance was measured using multimode reader (Synergy H1, BioTek). Results were represented as percentage of viability={[A550(treated cells)−background]/[A550(untreated cells)−background]}×100. The result was summarized and provided as IC50 table in Table 1.
For combination treatment effect, cells were plated in 96 well plates at 5000 cells/well. […] Following 48 h of treatment cell viability was measured following above mentioned MTT study.

SMILES: CC(=O)[C@H]1CC[C@H]2[C@@H]3CCC4=CC(=O)CC[C@]4(C)[C@H]3CC[C@]12C [Compound 1, Progesterone]
- IC50 (MCF7; MCF7, MTT, 48 h continuous treatment): > 20 µM
- total cell population in G2/M phase (T47D (PgR-positive)): 10%
- IC50 (COS-1; COS-1, MTT, 48 h continuous treatment, non-cancer cell): > 20 µM
- IC50 (B16F10; Mus musculus, B16-F10, MTT, 48 h continuous treatment, read-out: IC50 B16F10): > 20 µM
- IC50 (CHO; MTT, 48 h continuous treatment, non-cancer cell): > 20 µM
- IC50 (MDA-MB-231; Homo sapiens, MDA-MB-231, MTT, 48 h continuous treatment, read-out: IC50 MDA-MB-231): > 20 µM
- IC50 (NIH-3T3; NIH3T3, MTT, 48 h continuous treatment, non-cancer cell): > 20 µM
- IC50 (OVCAR-3; OVCAR-3, MTT, 48 h continuous treatment): > 20 µM
- effect on cell growth (HUVEC; 2.5 μM or even 10 μM): little to no effect
- toxicity in non-cancer cells [1]: did not impart any significant toxicity

SMILES: CCCCCCCCCC[N+](C)(CCCCCCCCCC)CCNC(=O)CCC(=O)O[C@@H](C)[C@H]1CCC2C3CCC4=CC(=O)CC[C@]4(C)C3CC[C@@]21C (stereo partly drawn) [Compound 6c, N-decyl-N-(2-(4-((1S)-1-((10R,13S,17S)-10,13-dimethyl-3-oxo-2,3,6,7,8,9,10,11,12,13,14, 15,16,17-tetradecahydro-1H-cyclopenta[a]phenanthren-17-yl)ethoxy)-4-oxobutanamido)ethyl)-N-methyldecan-1-aminium chloride]
- IC50 (MCF7; MCF7, 48 h): 7.33 ± 0.19 µM
- total cell population in G2/M phase (T47D (PgR-positive)): 38%
- IC50 (COS-1; COS-1, 48 h): > 20 µM
- IC50 (B16F10; Mus musculus, B16-F10, 48 h, read-out: IC50 B16F10, MTT, 48 h continuous treatment): 3.63 ± 0.16 µM
- IC50 (B16F10; read-out: IC50 B16F10, MTT, 48 h continuous treatment): 6.67 ± 0.27 µM
- IC50 (CHO; 48 h): 17.3 ± 0.29 µM
- IC50 (MDA-MB-231; Homo sapiens, MDA-MB-231, 48 h, read-out: IC50 MDA-MB-231, MTT, 48 h continuous treatment): 6.67 ± 0.27 µM
- IC50 (MDA-MB-231; read-out: IC50 MDA-MB-231, MTT, 48 h continuous treatment): 3.63 ± 0.16 µM
- IC50 (NIH-3T3; NIH3T3, 48 h): > 20 µM
- IC50 (OVCAR-3; OVCAR-3, 48 h): 4.48 ± 0.23 µM
- inhibition at 2.5 µM (HUVEC; Homo sapiens, 2.5 μM, read-out: inhibition of cell growth): 50%
- toxicity in non-cancer cells [1]: not in non-cancerous cell
- toxicity towards tested non-cancer cells ([1]; 2.5 μM-40 μM): largely non-toxic
